Source: ChEMBL document CHEMBL1139604 (Bioorg Med Chem Lett, 2005)

Assays:
[1] = Inhibition of bovine farnesyl transferase; parameters: species or system Bos taurus
[2] = target: T1, Protein farnesyltransferase (Mus musculus) (UniProt Q61239+Q8K2I1); experiment: Percent inhibition of Ras processing in H-ras transformed NIH3T3 cells at 100 nM; type: functional, cell-based
[3] = target: T2, Geranylgeranyl transferase type I (Bos taurus, UniProt P29702+Q5EAD5); experiment: Inhibition of bovine geranylgeranyl transferase type I; type: protein-complex assay
[4] = target: T1, Protein farnesyltransferase (Mus musculus); experiment: Percent inhibition of Ras processing in H-ras transformed NIH3T3 cells at 1000 nM; type: functional, cell-based
[5] = target: T2, Geranylgeranyl transferase type I; experiment: Inhibition of bovine geranylgeranyl transferase type I in presence of Lonafarnib; type: protein-complex assay
[6] = Inhibition of bovine farnesyl transferase in presence of Lonafarnib; parameters: species or system Bos taurus
[7] = target: T3, Protein farnesyltransferase (Mus musculus, UniProt Q61239+Q8K2I1); experiment: Inhibition of Ras processing in H-ras transformed NIH3T3 cells in presence of Lonafarnib; type: functional, cell-based
[8] = target: T3, Protein farnesyltransferase; experiment: Inhibition of Ras processing in H-ras transformed NIH3T3 cells; type: functional, cell-based

SMILES	IC50 [1]	inhibition [2]	IC50 [3]	also measured
Cn1cncc1C(O)(c1ccc(Cl)cc1)c1ccc2c(c1)n(-c1ccc3c(c1)OCO3)c(=O)n2C (stereo not drawn)	150 nM	–	–	–
Cn1cncc1C(O)(c1ccccc1)c1ccc2ccn(-c3cccc4ccccc34)c2c1 (stereo not drawn)	200 nM	–	–	–
Cn1cncc1C(O)(c1ccc(I)cc1)c1ccc2c(c1)n(Cc1cccc(Cl)c1)c(=O)n2C (stereo not drawn)	71 nM	–	–	–
Cn1cncc1C(O)(c1ccc(Cl)cc1)c1ccc2c(c1)n(-c1cccc(Cl)c1)c(=O)n2C (stereo not drawn)	16 nM	26%	–	–
Cn1cncc1C(O)(c1ccccc1)c1ccc2ccn(-c3cccc(Cl)c3)c2c1 (stereo not drawn)	36 nM	–	–	inhibition [4]: 13%
Cn1cncc1C(O)(c1ccc(Cl)cc1)c1ccc2c(c1)n(C)c(=O)n2-c1cccc(Cl)c1 (stereo not drawn)	1100 nM	–	–	–
Cn1cncc1C(O)(c1ccc(C#N)cc1)c1ccc2c(c1)n(-c1ccc3c(c1)OCO3)c(=O)n2C (stereo not drawn)	8 nM	0%	> 10000 nM	–
Cn1cncc1C(O)(c1ccc(I)cc1)c1ccc2c(c1)n(-c1cccc(Cl)c1)c(=O)n2C (stereo not drawn)	24 nM	2%	1200 nM	–
Cn1cncc1C(O)(c1ccc(Cl)cc1)c1ccc2c(c1)n(Cc1cccc(Cl)c1)c(=O)n2C (stereo not drawn)	150 nM	–	–	–
Cn1cncc1[C@@](N)(c1ccc(Cl)cc1)c1ccc2c(c1)c(-c1cccc(Cl)c1)cc(=O)n2C [TIPIFARNIB]	–	–	–	IC50 [5]: > 10000 nM; IC50 [6]: 8.3 nM; EC50 [7]: 100 nM
Cn1cncc1C(O)(c1ccc(Cl)cc1)c1ccc2c(c1)n(-c1ccc3ccccc3c1)c(=O)n2C (stereo not drawn)	21 nM	0%	2900 nM	–

Further lines, with some results ahead:

IC50 [1]	inhibition [2]	IC50 [3]	SMILES	also measured
6.7 nM	24%	> 10000 nM	COc1cccc(-n2c(=O)n(C)c3ccc(C(O)(c4ccc(Cl)cc4)c4cncn4C)cc32)c1 (stereo not drawn)	–
0.5 nM	47%	> 10000 nM	CCOc1cccc(-n2c(=O)n(C)c3ccc(C(O)(c4ccc(C#N)cc4)c4cncn4C)cc32)c1 (stereo not drawn)	–
6.6 nM	–	7500 nM	CCOc1cccc(-n2c(=O)n(C)c3ccc(C(O)(c4ccc(Cl)cc4)c4cncn4C)cc32)c1 (stereo not drawn)	EC50 [8]: 22 nM
5.2 nM	51%	5600 nM	Cn1cncc1C(O)(c1ccc(C#N)cc1)c1ccc2c(c1)n(Cc1cccc(Cl)c1)c(=O)n2C (stereo not drawn)	–
1.4 nM	–	1800 nM	Cn1cncc1C(O)(c1ccc(C#N)cc1)c1ccc2c(c1)n(-c1cccc(Cl)c1)c(=O)n2C (stereo not drawn)	EC50 [8]: 18.1 nM
5.1 nM	–	> 10000 nM	COc1cccc(-n2c(=O)n(C)c3ccc(C(O)(c4ccc(C#N)cc4)c4cncn4C)cc32)c1 (stereo not drawn)	–
